Test [1] relates to S. ramocissimus CBS 190.69. The experiment in a line: regeneration of protoplasts on regeneration medium. The test is classed as cell-based. Particulars: for Regeneration efficiency of protoplasts: regeneration medium. The method, then: (§1) Spores were isolated essentially as described by D. Hopwood et al. (cited above), and used to inoculate YMG medium (yeast extract 4 g/l, malt extract 10 g/l, glucose 4 g/l) containing 0.5% glycine. Protoplasts were obtained by lysozyme treatment of this culture, transformed as described by D. Hopwood et al. (cited above) with plasmid pMTST1VΔS and pMTST1TΔS. Subsequently the transformed protoplasts were spread on regeneration medium, and incubated at 30°C. Regeneration medium was prepared by mixing equal volumes of sporulation medium and stabilizer medium. Stabilizer medium consisted of NaNO₃ 3 g/l, K₂HPO₄.3H₂O 0.085 g/l, K₂SO₄ 0.25 g/l, FeSO₄.7H₂O 0.01 g/l, trace element solution 0.1 ml, Tris 3.03 g/l, NaCl 2.92 g/l, sucrose 103 g/l, glucose 10 g/l, MgCl₂.6H₂O 5 g/l, CaCl₂.2H₂O 1.5 g/l, and agar 20 g/l, adjusted to pH 7.2 with 4N HCl. […] After 24 hrs the regeneration plates were overlaid with 3 ml soft agar containing 20 µg/ml thiostrepton (D. Hopwood et al., cited above) and incubated at 30°C for 5 days.
(§2) Another test was carried out using protoplasts of strains S. ramocissimus CBS 190.69 and S. ramocissimus R1V, prepared as described in Example 7. […] Thus protoplasts were plated on regeneration medium (Example 7) containing 0 to 0.1 g/l mocimycin. Under these conditions protoplasts of S. ramocissimu CBS 190.69 were able to regenerate only at mocimycin concentrations below 0.02 g/l; regeneration of S. ramocissimus R1V protoplasts in the presence of up to 0.1 g/l mocimycin occurred with the same efficiency as without mocimycin (Table 2).

The subject of another test is S. ramocissimus R1V. The experiment in a line: regeneration of protoplasts on regeneration medium. The class given is cell-based. Particulars: for Regeneration efficiency of protoplasts: regeneration medium. The procedure: as §1, §2
[2] abbreviates: regeneration medium containing 0 to 0.1 g/l mocimycin.

With `C/C=C\C=C\[C@@H]1O[C@](O)([C@H](CC)C(=O)NC/C=C/C=C(\C)[C@@H](OC)[C@H](C)[C@@H]2O[C@H](/C=C/C=C/C=C(\C)C(=O)c3c(O)cc[nH]c3=O)[C@H](O)[C@@H]2O)[C@H](O)[C@H](O)C1(C)C` [mocimycin, Mocimycin], the “mocimycin concentrations at which protoplasts were able to regenerate” value in test [1] (setting [2]) is listed as “below 0.02 g/l”. Besides, the “Regeneration efficiency of protoplasts” value in test [1] (mocimycin 0.01 g/l) was 40%; in test [1] (mocimycin 0.02 g/l), 0%; in test [1] (mocimycin 0.04 g/l), 0%; in test [1] (mocimycin 0.07 g/l) it was 0%; in test [1] (mocimycin 0.10 g/l), 0%; in the test on S. ramocissimus R1V (mocimycin 0.01 g/l), 100%. For the same compound, the “Regeneration efficiency of protoplasts” value came to 100% in the test with S. ramocissimus R1V (mocimycin 0.02 g/l), 100% with S. ramocissimus R1V (mocimycin 0.04 g/l), 90% with S. ramocissimus R1V (mocimycin 0.07 g/l) and 80% in the test with S. ramocissimus R1V (mocimycin 0.10 g/l). In addition, the “mocimycin concentration up to which regeneration occurred with the same efficiency as without mocimycin” value in the test on S. ramocissimus R1V (setting [2]) is “up to 0.1 g/l”.
